Laboratory results published in ChEMBL document CHEMBL1129891, “Synthesis and cytotoxic activity of alkylidene- and alkyl-substituted camptothecins” (Bioorg Med Chem Lett, 1997).

Tests used:
L1210 = assay: Concentration required to inhibit 50% of cell growth in L1210 murine leukemia cell line after 48 hr continuous treatment; type: functional, cell-based; conditions: Mus musculus, L1210, 48 h
DNA topoisomerase 1 = target: T1, DNA topoisomerase 1 (Homo sapiens, UniProt P11387); assay: Concentration required to inhibit 50% relaxation of 250 ng of SV40 DNA obtained with 0.5 I.U topoisomerase I at 37 degrees C for 30 min
T1 sequence (P11387 whole entry): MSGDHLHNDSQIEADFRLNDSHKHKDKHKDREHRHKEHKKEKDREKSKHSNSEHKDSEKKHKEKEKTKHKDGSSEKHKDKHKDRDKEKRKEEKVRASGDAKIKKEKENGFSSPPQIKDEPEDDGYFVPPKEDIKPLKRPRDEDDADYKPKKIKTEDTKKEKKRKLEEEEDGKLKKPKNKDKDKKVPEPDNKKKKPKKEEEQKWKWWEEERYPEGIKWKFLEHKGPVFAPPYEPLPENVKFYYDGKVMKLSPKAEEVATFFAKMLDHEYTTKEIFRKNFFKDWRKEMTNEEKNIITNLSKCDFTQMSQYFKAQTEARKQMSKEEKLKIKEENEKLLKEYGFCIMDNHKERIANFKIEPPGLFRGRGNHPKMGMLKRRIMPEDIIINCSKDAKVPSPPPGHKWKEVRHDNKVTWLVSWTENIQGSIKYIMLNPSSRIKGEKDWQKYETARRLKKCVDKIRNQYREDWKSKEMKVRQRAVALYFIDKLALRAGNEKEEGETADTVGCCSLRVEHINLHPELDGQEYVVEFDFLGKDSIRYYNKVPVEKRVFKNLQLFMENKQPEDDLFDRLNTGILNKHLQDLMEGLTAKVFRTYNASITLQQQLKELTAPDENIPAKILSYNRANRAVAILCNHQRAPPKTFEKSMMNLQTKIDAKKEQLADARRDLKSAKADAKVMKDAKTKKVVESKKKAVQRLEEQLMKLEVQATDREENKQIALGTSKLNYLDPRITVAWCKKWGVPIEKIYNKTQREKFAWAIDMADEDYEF

CC[C@@]1(O)C(=O)OCc2c1cc1n(c2=O)Cc2cc3c(/C=C/c4ccccc4)cccc3nc2-1
IC50 (L1210): 15.8 nM
IC50 (DNA topoisomerase 1): > 100 µM

C=Cc1cccc2nc3c(cc12)Cn1c-3cc2c(c1=O)COC(=O)[C@]2(O)CC
IC50 (L1210): 7.5 nM
IC50 (DNA topoisomerase 1): 4.2 µM

CC[C@@]1(O)C(=O)OCc2c1cc1n(c2=O)Cc2cc3c(CCC(=O)OC)cccc3nc2-1
IC50 (L1210): 6.2 nM
IC50 (DNA topoisomerase 1): 41.8 µM

CC[C@@]1(O)C(=O)OCc2c1cc1n(c2=O)Cc2cc3c(N)cccc3nc2-1 [9-AMINOCAMPTOTHECIN]
IC50 (DNA topoisomerase 1): 1.8 µM

CC[C@@]1(O)C(=O)OCc2c1cc1n(c2=O)Cc2cc3c(/C=C/C(N)=O)cccc3nc2-1
IC50 (L1210): 121 nM
IC50 (DNA topoisomerase 1): 3.2 µM

CC[C@@]1(O)C(=O)OCc2c1cc1n(c2=O)Cc2cc3c(/C=C/C(=O)OC)cccc3nc2-1
IC50 (L1210): 7.6 nM
IC50 (DNA topoisomerase 1): 6.7 µM

CC[C@@]1(O)C(=O)OCc2c1cc1n(c2=O)Cc2cc3c(/C=C(\NC(C)=O)C(=O)OC)cccc3nc2-1
IC50 (L1210): 1180 nM
IC50 (DNA topoisomerase 1): 31.9 µM

CC[C@@]1(O)C(=O)OCc2c1cc1n(c2=O)Cc2cc3c(CC(NC(C)=O)C(=O)OC)cccc3nc2-1 (some centres undefined)
IC50 (L1210): 183 nM
IC50 (DNA topoisomerase 1): 11.3 µM

CC[C@@]1(O)C(=O)OCc2c1cc1n(c2=O)Cc2cc3c(CCc4ccccc4)cccc3nc2-1
IC50 (L1210): 16.3 nM
IC50 (DNA topoisomerase 1): > 100 µM

CC[C@@]1(O)C(=O)OCc2c1cc1n(c2=O)Cc2cc3cc(/C=C/C(=O)OC)ccc3nc2-1
IC50 (L1210): 62.3 nM
IC50 (DNA topoisomerase 1): > 100 µM
